Experimental data: patent US6737383B1, “Herbicidal oxadiazolidines” (priority 1999, dated 2004)

Legend:
[1] = test system: rice; assay: Test B flood test rice; type: in vivo, Oryza sativa
How it was run: (§1)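 Flood test on plants grown to the 2-leaf stage; treated plants kept in greenhouse twelve to sixteen days, then visually rated against controls on a 0 (no effect) to 10 (complete control) scale.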

[2] = test system: velvetleaf; assay: Test B pre/postemergence velvetleaf; type: in vivo, Abutilon theophrasti
How it was run: (§2)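 Test chemicals in a non-phytotoxic solvent mixture with surfactant were sprayed preemergence onto planted seeds and postemergence onto plants 2 to 18 cm tall (1- to 4-leaf stage). After twelve to sixteen days in a greenhouse, injury was visually rated against untreated controls from 0 (no effect) to 10 (complete control).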

[3] = test system: wild oat; assay: Test B pre/postemergence wild oat; type: in vivo, Avena fatua
How it was run: as §2

[4] = test system: smallflower flatsedge; assay: Test B flood test smallflower flatsedge; type: in vivo, Cyperus difformis
How it was run: as §1

[5] = test system: duck salad; assay: Test B flood test duck salad; type: in vivo, Heteranthera limosa
How it was run: as §1

[6] = test system: pigweed; assay: Test B pre/postemergence pigweed; type: in vivo, Amaranthus retroflexus
How it was run: as §2

[7] = test system: rape; assay: Test B pre/postemergence rape; type: in vivo, Brassica napus
How it was run: as §2

[8] = test system: purple nutsedge; assay: Test B pre/postemergence purple nutsedge; type: in vivo, Cyperus rotundus
How it was run: as §2

[9] = test system: soybean; assay: Test B pre/postemergence soybean; type: in vivo, Glycine max
How it was run: as §2

[10] = test system: morningglory; assay: Test B pre/postemergence morningglory; type: in vivo, Ipomoea hederacea
How it was run: as §2

[11] = test system: crabgrass; assay: Test B pre/postemergence crabgrass; type: in vivo, Digitaria sanguinalis
How it was run: as §2

[12] = test system: wheat; assay: Test B pre/postemergence wheat; type: in vivo, Triticum aestivum
How it was run: as §2

[13] = test system: giant foxtail; assay: Test B pre/postemergence giant foxtail; type: in vivo, Setaria faberii
How it was run: as §2

[14] = test system: cocklebur; assay: Test B pre/postemergence cocklebur; type: in vivo, Xanthium strumarium
How it was run: as §2

[15] = test system: corn; assay: Test B pre/postemergence corn; type: in vivo, Zea mays
How it was run: as §2

[16] = test system: bedstraw; assay: Test B pre/postemergence bedstraw; type: in vivo, Galium aparine
How it was run: as §2

[17] = Postemergence, Rate 62 g/ha, scale 0 to 10, 0 is no effect, 10 is complete control
[18] = Rate 125 g/ha, Postemergence section (flood test species), scale 0 to 10, 0 no effect, 10 complete control
[19] = Rate 500 g/ha, listed under Postemergence (flood test species), scale 0 to 10, 0 no effect, 10 complete control
[20] = flood test, listed under Postemergence, Rate 250 g/ha, scale 0 to 10, 0 no effect, 10 complete control
[21] = Postemergence, Rate 250 g/ha, scale 0 to 10, 0 no effect, 10 complete control
[22] = Preemergence, Rate 62 g/ha, scale 0 to 10 (0 no effect, 10 complete control)
[23] = Preemergence, Rate 125 g/ha, scale 0 to 10 (0 no effect, 10 complete control)
[24] = Preemergence, Rate 250 g/ha, scale of 0 to 10 where 0 is no effect and 10 is complete control
[25] = Preemergence, Rate 500 g/ha, scale 0 (no effect) to 10 (complete control)
[26] = Rate 125 g/ha, Postemergence, scale 0 to 10, 0 no effect, 10 complete control
[27] = Rate 500 g/ha, Postemergence, scale 0 to 10, 0 no effect, 10 complete control

Cc1ccccc1Cn1c(=O)on(C(=O)N(C)c2ccccc2)c1=O [Compound 85]
0: Rice plant response rating [1, 17] | Rice plant response rating [1, 18] | Rice plant response rating [1, 19] | Rice plant response rating [1, 20] | Velvetleaf plant response rating [2, 17] | Velvetleaf plant response rating [2, 21] | Velvetleaf plant response rating [2, 22] | Plant response rating, Velvetleaf [2, 23] | Plant response rating, Velvetleaf [2, 24] | Velvetleaf plant response rating [2, 25] | Velvetleaf plant response rating [2, 26] | Velvetleaf plant response rating [2, 27] | Wild oats plant response rating [3, 17] | Wild oats plant response rating [3, 21] | Wild oats plant response rating [3, 22] | Plant response rating, Wild oats [3, 23] | Plant response rating, Wild oats [3, 24] | Wild oats plant response rating [3, 25] | Wild oats plant response rating [3, 26] | Wild oats plant response rating [3, 27] | S. Flatsedge plant response rating [4, 17] | S. Flatsedge plant response rating [4, 18] | S. Flatsedge plant response rating [4, 19] | S. Flatsedge plant response rating [4, 20] | Ducksalad plant response rating [5, 17] | Ducksalad plant response rating [5, 18] | Ducksalad plant response rating [5, 19] | Ducksalad plant response rating [5, 20] | Redroot pigweed plant response rating [6, 17] | Redroot pigweed plant response rating [6, 21] | Redroot pigweed plant response rating [6, 22] | Plant response rating, Redroot pigweed [6, 23] | Plant response rating, Redroot pigweed [6, 24] | Redroot pigweed plant response rating [6, 25] | Redroot pigweed plant response rating [6, 26] | Redroot pigweed plant response rating [6, 27] | Rape plant response rating [7, 17] | Rape plant response rating [7, 21] | Rape plant response rating [7, 22] | Plant response rating, Rape [7, 23] | Plant response rating, Rape [7, 24] | Rape plant response rating [7, 25] | Rape plant response rating [7, 26] | Rape plant response rating [7, 27] | Nutsedge plant response rating [8, 17] | Nutsedge plant response rating [8, 21] | Nutsedge plant response rating [8, 22] | Plant response rating, Nutsedge [8, 23] | Plant response rating, Nutsedge [8, 24] | Nutsedge plant response rating [8, 25] | Nutsedge plant response rating [8, 26] | Nutsedge plant response rating [8, 27] | Soybean plant response rating [9, 17] | Soybean plant response rating [9, 21] | Soybean plant response rating [9, 22] | Plant response rating, Soybean [9, 23] | Plant response rating, Soybean [9, 24] | Soybean plant response rating [9, 25] | Soybean plant response rating [9, 26] | Soybean plant response rating [9, 27] | Morningglory plant response rating [10, 17] | Morningglory plant response rating [10, 21] | Morningglory plant response rating [10, 22] | Plant response rating, Morningglory [10, 23] | Plant response rating, Morningglory [10, 24] | Morningglory plant response rating [10, 25] | Morningglory plant response rating [10, 26] | Morningglory plant response rating [10, 27] | Crabgrass plant response rating [11, 17] | Crabgrass plant response rating [11, 21] | Crabgrass plant response rating [11, 22] | Plant response rating, Crabgrass [11, 23] | Plant response rating, Crabgrass [11, 24] | Crabgrass plant response rating [11, 25] | Crabgrass plant response rating [11, 26] | Crabgrass plant response rating [11, 27] | Wheat plant response rating [12, 17] | Wheat plant response rating [12, 21] | Wheat plant response rating [12, 22] | Plant response rating, Wheat [12, 23] | Plant response rating, Wheat [12, 24] | Wheat plant response rating [12, 25] | Wheat plant response rating [12, 26] | Wheat plant response rating [12, 27] | Giant foxtail plant response rating [13, 17] | Giant foxtail plant response rating [13, 21] | Giant foxtail plant response rating [13, 22] | Plant response rating, Giant foxtail [13, 23] | Plant response rating, Giant foxtail [13, 24] | Giant foxtail plant response rating [13, 25] | Giant foxtail plant response rating [13, 26] | Giant foxtail plant response rating [13, 27] | Cocklebur plant response rating [14, 17] | Cocklebur plant response rating [14, 21] | Cocklebur plant response rating [14, 22] | Plant response rating, Cocklebur [14, 23] | Plant response rating, Cocklebur [14, 24] | Cocklebur plant response rating [14, 25] | Cocklebur plant response rating [14, 26] | Cocklebur plant response rating [14, 27] | Corn plant response rating [15, 17] | Corn plant response rating [15, 21] | Corn plant response rating [15, 22] | Plant response rating, Corn [15, 23] | Plant response rating, Corn [15, 24] | Corn plant response rating [15, 25] | Corn plant response rating [15, 26] | Corn plant response rating [15, 27] | Bedstraw plant response rating [16, 17] | Bedstraw plant response rating [16, 21] | Bedstraw plant response rating [16, 22] | Plant response rating, Bedstraw [16, 23] | Plant response rating, Bedstraw [16, 24] | Bedstraw plant response rating [16, 25] | Bedstraw plant response rating [16, 26] | Bedstraw plant response rating [16, 27]
